{"source": "patent US20090306625A1", "about": "“TREATMENT SYSTEMS AND METHODS FOR RENAL-RELATED DISEASES” (AngioDynamics, Inc., priority 2007, published 2009)", "key": {"septic patients": {"tested_on": "septic patients", "settings": "IV infusion 0.09 mcg/kg/min, average of one week or more, ICU; cited from earlier work"}, "[1]": {"tested_on": "patients with moderate to severe underlying renal dysfunction", "assay": "Targeted renal therapy (intra-renal infusion) with fenoldopam mesylate in patients receiving a nephrotoxic radio-contrast agent", "type": "in vivo, human", "settings": "TRT (intra-renal) delivery", "description": "TRT can be applied to patients with various agents in many clinical settings to mitigate acute kidney injury. For example, TRT can be applied with fenoldopam mesylate, a dopamine DI-like agonist vasodilator (CORLOPAM® brand of Fenoldopam Mesylate Injection). […] The increase in GFR can be seen in the setting of an insult to the kidneys in the form of a nephrotoxic radio-contrast agent."}}, "note": "Counter-ions that a name gives are not always drawn."}
{"smiles": "Oc1ccc(C2CNCCc3c2cc(O)c(O)c3Cl)cc1", "note": "(stereo not drawn) [fenoldopam mesylate]", "values": [{"measurement": "outcome in preventing kidney failure", "setting": "septic patients", "value": "improved outcomes in preventing kidney failure"}, {"measurement": "effect on blood pressure", "setting": "[1]", "value": "no significant effect"}, {"measurement": "increase in glomerular filtration rate (GFR) above baseline", "setting": "[1]; nephrotoxic radio-contrast insult", "value": "approximately 25%"}]}
